Measured values taken from US20090143279A1 (priority 2007, published 2009).
Where two headings read alike, the source gives them in different places.

How the values were obtained:
mtOXPHOS transcripts = assay type: cell-based, mouse; conditions: for mitoOX (composite Z-score): normalized score vs mock-treated (DMSO) wells
nuOXPHOS transcripts = assay type: cell-based, mouse; conditions: for nucOX (composite Z-score): normalized score vs mock-treated (DMSO) wells
reactive oxygen species = assay type: cell-based, mouse; conditions: for ROS (composite Z-score): normalized score vs mock-treated (DMSO) wells
OXPHOS gene expression = assay type: cell-based, mouse; conditions: for GE-HTS (composite Z-score): normalized score vs mock-treated (DMSO) wells
[1] = test system: cellular dehydrogenase activity; conditions: for MTT (composite Z-score): normalized score vs mock-treated (DMSO) wells
C2C12 myotubes = conditions: for Viability (composite Z-score): normalized score vs mock-treated (DMSO) wells
cytochrome c = assay type: cell-based, mouse; conditions: for cyt c (composite Z-score): normalized score vs mock-treated (DMSO) wells
[2] = test system: mitochondrial membrane potential; assay type: cell-based, mouse; conditions: for ΔΨm (composite Z-score): normalized score vs mock-treated (DMSO) wells
[3] = composite Z-score vs DMSO, Conc 20 μM
[4] = Table 7, C2C12 myotubes, 48 h, composite Z-score
[5] = composite Z-score vs mock-treated (DMSO) wells, Conc 20 μM
[6] = composite Z-score vs mock-treated (DMSO) wells, concentration of each compound in μM
[7] = normalized composite Z-score vs mock-treated (DMSO) wells, Conc 20 μM
[8] = composite Z-score vs DMSO wells, Conc 20 μM

Compound: COc1cc2c(cc1OC)[C@@H]1C(=O)c3ccc4c(c3O[C@@H]1CO2)CC(C(C)C)O4 (some centres unmarked) [dihydrorotenone, reference compound]
- mitoOX (mtOXPHOS transcripts; [3]): −1.732
- nucOX (nuOXPHOS transcripts; [3]): −2.212
- ROS (reactive oxygen species; [3]): −0.682
- GE-HTS (OXPHOS gene expression; [3]): −2.179
- MTT [1, 3]: −4.020
- Viability (C2C12 myotubes; [3]): 0.390
- cyt c (cytochrome c; [3]): −3.153
- ΔΨm [2, 3]: −0.314

Compound: CC(=O)O[C@@H]1c2c(ccc3ccc(=O)oc23)OC(C)(C)[C@@H]1OC(=O)CC(C)C [dihydrosamidin, reference compound]
- mitoOX (composite Z-score) (mtOXPHOS transcripts; Conc 20 μM): 1.477
- mito-OXPHOS Z (mtOXPHOS transcripts; [4]): 1.48
- nucOX (composite Z-score) (nuOXPHOS transcripts; Conc 20 μM): 1.843
- nucOXPHOS Z (nuOXPHOS transcripts; [4]): 1.84
- ROS (composite Z-score) (reactive oxygen species; Conc 20 μM): 4.794
- GE-HTS (composite Z-score) (OXPHOS gene expression; Conc 20 μM): 1.854
- MTT (composite Z-score) ([1]; Conc 20 μM): −0.826
- Viability (composite Z-score) (C2C12 myotubes; Conc 20 μM): 0.476
- cyt c (composite Z-score) (cytochrome c; Conc 20 μM): 0.147
- ΔΨm (composite Z-score) ([2]; Conc 20 μM): 0.199

Compound: Cc1cc(=O)c2c(O)c3c(cc2o1)OC(C)(C)CC3 [dihydrospatheliachromene]
- mitoOX (mtOXPHOS transcripts; [5]): −0.569
- nucOX (nuOXPHOS transcripts; [5]): −0.620
- ROS (reactive oxygen species; [5]): 1.483
- GE-HTS (OXPHOS gene expression; [5]): −0.666
- MTT [1, 5]: −1.802
- Viability (C2C12 myotubes; [5]): −0.538
- cyt c (cytochrome c; [5]): 0.068
- ΔΨm [2, 5]: −0.174

Compound: CC(=O)[C@H]1CC[C@H]2[C@@H]3CCC4C[C@H](O)CC[C@]4(C)[C@H]3C[C@H](O)[C@]12C (stereo partly drawn) [dihydroxy (3alpha,12alpha)pregnan-20-one]
- mitoOX (mtOXPHOS transcripts; [5]): −0.621
- nucOX (nuOXPHOS transcripts; [5]): −0.972
- ROS (reactive oxygen species; [5]): 0.206
- GE-HTS (OXPHOS gene expression; [5]): −0.928
- MTT [1, 5]: −1.160
- Viability (C2C12 myotubes; [5]): −0.622
- cyt c (cytochrome c; [5]): −0.685
- ΔΨm [2, 5]: −0.540

Compound: COc1ccc(/C=C/C(=O)O)cc1OC [dimethylcaffeic acid]
- mitoOX (composite Z-score) (mtOXPHOS transcripts; Conc 20 μM): −0.885
- nucOX (composite Z-score) (nuOXPHOS transcripts; Conc 20 μM): −0.838
- ROS (composite Z-score) (reactive oxygen species; Conc 20 μM): −0.142
- GE-HTS (composite Z-score) (OXPHOS gene expression; Conc 20 μM): −0.924
- MTT (composite Z-score) ([1]; Conc 20 μM): −1.206
- Viability (composite Z-score) (C2C12 myotubes; Conc 20 μM): 0.147
- cyt c (composite Z-score) (cytochrome c; Conc 20 μM): 0.804
- ΔΨm (composite Z-score) ([2]; Conc 20 μM): −0.061

Compound: COc1ccc(-c2cc(=O)c3c(OC)cc(OC)c(-c4cc(-c5cc(=O)c6c(OC)cc(OC)cc6o5)ccc4OC)c3o2)cc1 [dioonflavone]
- mitoOX (mtOXPHOS transcripts; [6]): −0.969
- nucOX (nuOXPHOS transcripts; [6]): −0.204
- ROS (reactive oxygen species; [6]): 0.650
- GE-HTS (OXPHOS gene expression; [6]): −0.471
- MTT [1, 6]: −0.744
- Viability (C2C12 myotubes; [6]): −0.003
- cyt c (cytochrome c; [6]): 0.605
- ΔΨm [2, 6]: 0.208

Compound: C[C@@H]1CC[C@@]2(OC1)O[C@H]1C[C@H]3[C@@H]4CC=C5C[C@@H](O)CC[C@]5(C)[C@H]4CC[C@]3(C)[C@H]1[C@@H]2C [diosgenin]
- mitoOX (mtOXPHOS transcripts; [3]): 0.146
- nucOX (nuOXPHOS transcripts; [3]): −0.445
- ROS (reactive oxygen species; [3]): 0.048
- GE-HTS (OXPHOS gene expression; [3]): −0.245
- MTT [1, 3]: −1.597
- Viability (C2C12 myotubes; [3]): −0.044
- cyt c (cytochrome c; [3]): −0.679
- ΔΨm [2, 3]: −0.353

Compound: COc1ccc(-c2cc(=O)c3c(O)cc(O)cc3o2)cc1O [diosmetin]
- mitoOX (mtOXPHOS transcripts; [7]): −0.134
- nucOX (nuOXPHOS transcripts; [7]): −1.158
- ROS (reactive oxygen species; [7]): −0.014
- GE-HTS (OXPHOS gene expression; [7]): −0.892
- MTT [1, 7]: −1.922
- Viability (C2C12 myotubes; [7]): 0.174
- cyt c (cytochrome c; [7]): −0.666
- ΔΨm [2, 7]: −2.701

Compound: COc1ccc(-c2cc(=O)c3c(O)cc(O[C@@H]4O[C@H](CO[C@@H]5O[C@@H](C)[C@H](O)[C@@H](O)[C@H]5O)[C@@H](O)[C@H](O)[C@H]4O)cc3o2)cc1O [diosmin]
- mitoOX (mtOXPHOS transcripts; [8]): −1.147
- nucOX (nuOXPHOS transcripts; [8]): −1.150
- ROS (reactive oxygen species; [8]): 0.321
- GE-HTS (OXPHOS gene expression; [8]): −1.223
- MTT [1, 8]: −0.708
- Viability (C2C12 myotubes; [8]): −0.712
- cyt c (cytochrome c; [8]): −0.433
- ΔΨm [2, 8]: −0.501

Compound: CC(=O)Oc1ccccc1C(=O)Oc1ccccc1C(=O)O [diplosalsalate]
- mitoOX (composite Z-score) (mtOXPHOS transcripts; Conc 20 μM): −0.766
- nucOX (composite Z-score) (nuOXPHOS transcripts; Conc 20 μM): −0.994
- ROS (composite Z-score) (reactive oxygen species; Conc 20 μM): 0.306
- GE-HTS (composite Z-score) (OXPHOS gene expression; Conc 20 μM): −1.001
- MTT (composite Z-score) ([1]; Conc 20 μM): −0.860
- Viability (composite Z-score) (C2C12 myotubes; Conc 20 μM): −0.204
- cyt c (composite Z-score) (cytochrome c; Conc 20 μM): 0.787
- ΔΨm (composite Z-score) ([2]; Conc 20 μM): 0.008

Compound: CC[C@H](C)[C@H](N)C(=O)N1CCC[C@H]1C(=O)N[C@H](C(=O)O)[C@@H](C)CC [diprotin A]
- mitoOX (mtOXPHOS transcripts; [6]): 0.490
- nucOX (nuOXPHOS transcripts; [6]): −0.102
- ROS (reactive oxygen species; [6]): 0.300
- GE-HTS (OXPHOS gene expression; [6]): 0.099
- MTT [1, 6]: −1.068
- Viability (C2C12 myotubes; [6]): −0.788
- cyt c (cytochrome c; [6]): −0.975
- ΔΨm [2, 6]: 0.357

Compound: CC(=O)Oc1cccc(C(=O)O)c1OC(C)=O [dipyrocetyl]
- mitoOX (composite Z-score) (mtOXPHOS transcripts; Conc 20 μM): −0.341
- nucOX (composite Z-score) (nuOXPHOS transcripts; Conc 20 μM): −0.242
- ROS (composite Z-score) (reactive oxygen species; Conc 20 μM): 1.260
- GE-HTS (composite Z-score) (OXPHOS gene expression; Conc 20 μM): −0.311
- MTT (composite Z-score) ([1]; Conc 20 μM): −1.355
- Viability (composite Z-score) (C2C12 myotubes; Conc 20 μM): 0.452
- cyt c (composite Z-score) (cytochrome c; Conc 20 μM): 0.865
- ΔΨm (composite Z-score) ([2]; Conc 20 μM): −0.363
